Source: patent US12396951B2, “Prevention of local tumor recurrence following surgery using sustainedand/or delayed release of medicaments contained in micro-particles” (UPEXMED CO. LTD., priority 2016, dated 2025)

Assay: In vitro release study of EVE-PLGA microsphere (sample-and-separate method)
Format: physicochemical
Settings: during in vitro release study, release medium pH 7.4, 37° C.
Description: The in vitro release study was carried out by a sample-and-separate method. Briefly, 20 mg of microsphere sample (n=3) was taken in a 100 mL flask and dispersed in 50 mL of release medium (0.5% Tween 20 and 0.1% sodium azide in phosphate buffered saline (PBS) at pH 7.4). The flasks were placed in an orbital agitating incubator at 37° C. and shaken at 100 rpm. At certain time points (E10PA53 at 1, 3, 7, 14, 21, 28, 35, 42, 49, 56 days and E10PE77 at 1, 3, 7, 14, 21, 28, 35, 42, 49, 56, 63, 70, 77, 84, 91 days), all medium was collected and filtered on filter paper. The filtered pellet was freeze-dried for 24 h and dissolved in acetonitrile. The content of the unreleased EVE was then analyzed by HPLC as described above. Since EVE was known to be degradable in aqueous solution as a free form in a time-dependent manner, the EVE content was analyzed in the microsphere residue.
The microspheres were also prepared using a membrane with a pore size of 50 μm, which produced microspheres having a diameter size larger than 75 μm. To analyze the release behavior of EVE from the microspheres, an in vitro release study was performed by a sample-and-separate method at physiological conditions. […] The content of EVE was determined in the remaining microsphere after collecting whole samples at certain time points to avoid degradation-related loss of EVE in an aqueous environment.

SMILES: CO[C@H]1C[C@@H]2CC[C@@H](C)[C@@](O)(O2)C(=O)C(=O)N2CCCC[C@H]2C(=O)O[C@H]([C@H](C)C[C@@H]2CC[C@@H](OCCO)[C@H](OC)C2)CC(=O)[C@H](C)/C=C(\C)[C@@H](O)[C@@H](OC)C(=O)[C@H](C)C[C@H](C)/C=C/C=C/C=C/1C [EVE, everolimus]
- stability of EVE in the microsphere: no change in the stability
